Key:
Cytochrome P450 2C19 [1] = target: T1, Cytochrome P450 2C19 (Homo sapiens, UniProt P33261); assay: Drug metabolism assessed as recombinant human liver CYP2C19-mediated formation of d5-desmethyl-zicronapine at 10 uM measured after 15 to 180 mins in presence of zicronapine by LC-MS/MS analysis; assay type: ADME; conditions: recombinant enzyme, time 15-180 min
Cytochrome P450 3A4 [2] = target: T2, Cytochrome P450 3A4 (Homo sapiens, UniProt P08684); assay: Drug metabolism assessed as recombinant human liver CYP3A4-mediated formation of d5-desmethyl-zicronapine at 10 uM measured after 15 to 180 mins in presence of zicronapine by LC-MS/MS analysis; assay type: ADME; conditions: recombinant enzyme, time 15-180 min
[3] = target: 5-hydroxytryptamine receptor 1A (Homo sapiens, UniProt P08908); assay: Displacement of [3H]8-OH-DPAT from recombinant human 5-HT1A receptor measured after 60 mins by scintillation counting analysis
[4] = Drug metabolism in human liver microsomes assessed as formation of desmethyl-zicronapine at 10 uM measured after 15 to 180 mins in presence of NADPH regenerating system by LC-MS/MS analysis; assay type: ADME, Microsome; conditions: time 15-180 min
[5] = Drug metabolism in human liver microsomes assessed as formation of d5-desmethyl-zicronapine at 10 uM measured after 15 to 180 mins in presence of NADPH regenerating system by LC-MS/MS analysis; assay type: ADME, Microsome; conditions: time 15-180 min
[6] = target: 5-hydroxytryptamine receptor 1B (Rattus norvegicus, UniProt P28564); assay: Displacement of [125I]CYP from rat brain 5HT1B receptor measured after 120 mins by scintillation counting analysis
[7] = target: 5-hydroxytryptamine receptor 2B (Homo sapiens, UniProt P41595); assay: Displacement of [125I](+/-)DOI from recombinant human 5-HT2B receptor measured after 60 mins by scintillation counting analysis
[8] = target: 5-hydroxytryptamine receptor 2C (Homo sapiens, UniProt P28335); assay: Displacement of [125I](+/-)DOI from recombinant human 5-HT2C receptor measured after 60 mins by scintillation counting analysis
[9] = target: 5-hydroxytryptamine receptor 7 (Homo sapiens, UniProt P34969); assay: Displacement of [3H]LSD from recombinant human 5-HT7 receptor measured after 120 mins by scintillation counting analysis
D(3) dopamine receptor = D(3) dopamine receptor (Homo sapiens, UniProt P35462); assay: Displacement of [3H]methyl-spiperone from recombinant human D3 receptor measured after 60 mins by scintillation counting analysis
D(4) dopamine receptor = D(4) dopamine receptor (Homo sapiens, UniProt P21917); assay: Displacement of [3H]methyl-spiperone from recombinant human D4.4 receptor measured after 60 mins by scintillation counting analysis
D(1B) dopamine receptor = D(1B) dopamine receptor (Homo sapiens, UniProt P21918); assay: Displacement of [3H]SCH 23390 from recombinant human D5 receptor measured after 60 mins by scintillation counting analysis
[10] = target: Alpha-1A adrenergic receptor (Homo sapiens, UniProt P35348); assay: Displacement of [3H]prazosin from recombinant human alpha1A receptor measured after 60 mins by scintillation counting analysis
[11] = target: Alpha-1B adrenergic receptor (Homo sapiens, UniProt P35368); assay: Displacement of [3H]prazosin from recombinant human alpha1B receptor measured after 60 mins by scintillation counting analysis
[12] = target: Alpha-1D adrenergic receptor (Homo sapiens, UniProt P25100); assay: Displacement of [3H]prazosin from recombinant human alpha1D receptor measured after 60 mins by scintillation counting analysis
[13] = target: Alpha-2A adrenergic receptor (Homo sapiens, UniProt P08913); assay: Displacement of [3H]RX 821002 from recombinant human alpha2A receptor measured after 60 mins by scintillation counting analysis
[14] = target: Alpha-2B adrenergic receptor (Homo sapiens, UniProt P18089); assay: Displacement of [3H]RX 821002 from recombinant human alpha2B receptor measured after 60 mins by scintillation counting analysis
[15] = target: Alpha-2C adrenergic receptor (Homo sapiens, UniProt P18825); assay: Displacement of [3H]RX 821002 from recombinant human alpha2C receptor measured after 60 mins by scintillation counting analysis
[16] = target: Sodium-dependent dopamine transporter (Homo sapiens, UniProt Q01959); assay: Displacement of [3H]BTCP from recombinant human DAT measured after 120 mins by scintillation counting analysis
Histamine H1 receptor = Histamine H1 receptor (Homo sapiens, UniProt P35367); assay: Displacement of [3H]pyrilamine from recombinant human H1 receptor measured after 60 mins by scintillation counting analysis
[17] = target: 5-hydroxytryptamine receptor 2A (Homo sapiens, UniProt P28223); assay: Displacement of [125I](+/-)DOI from recombinant human 5-HT2A receptor measured after 60 mins by scintillation counting analysis
[18] = target: 5-hydroxytryptamine receptor 6 (Homo sapiens, UniProt P50406); assay: Displacement of [3H]LSD from recombinant human 5-HT6 receptor measured after 120 mins by scintillation counting analysis
D(1A) dopamine receptor = D(1A) dopamine receptor (Homo sapiens, UniProt P21728); assay: Displacement of [3H]SCH 23390 from recombinant human D1 receptor measured after 60 mins by scintillation counting analysis
D(2) dopamine receptor = D(2) dopamine receptor (Homo sapiens, UniProt P14416); assay: Displacement of [3H]7-OH-DPAT from recombinant human D2S receptor measured after 60 mins by scintillation counting analysis
Cytochrome P450 2C19 [19] = target: T1, Cytochrome P450 2C19; assay: Drug metabolism assessed as recombinant human liver CYP2C19-mediated formation of desmethyl-zicronapine at 10 uM measured after 15 to 180 mins in presence of d5-zicronapine by LC-MS/MS analysis; assay type: ADME; conditions: recombinant enzyme, time 15-180 min
Cytochrome P450 2C19 [20] = target: T1, Cytochrome P450 2C19; assay: Drug metabolism assessed as recombinant human liver CYP2C19-mediated formation of desmethyl-zicronapine at 10 uM measured after 15 to 180 mins in presence of Lu AF35700 by LC-MS/MS analysis; assay type: ADME; conditions: recombinant enzyme, time 15-180 min
Cytochrome P450 2C19 [21] = target: T1, Cytochrome P450 2C19; assay: Drug metabolism assessed as recombinant human liver CYP2C19-mediated formation of d5-desmethyl-zicronapine at 10 uM measured after 15 to 180 mins in presence of Lu AF35700 by LC-MS/MS analysis; assay type: ADME; conditions: recombinant enzyme, time 15-180 min
Cytochrome P450 3A4 [22] = target: T2, Cytochrome P450 3A4; assay: Drug metabolism assessed as recombinant human liver CYP3A4-mediated formation of desmethyl-zicronapine at 10 uM measured after 15 to 180 mins in presence of d5-zicronapine by LC-MS/MS analysis; assay type: ADME; conditions: recombinant enzyme, time 15-180 min
Cytochrome P450 3A4 [23] = target: T2, Cytochrome P450 3A4; assay: Drug metabolism assessed as recombinant human liver CYP3A4-mediated formation of desmethyl-zicronapine at 10 uM measured after 15 to 180 mins in presence of Lu AF35700 by LC-MS/MS analysis; assay type: ADME; conditions: recombinant enzyme, time 15-180 min
Cytochrome P450 3A4 [24] = target: T2, Cytochrome P450 3A4; assay: Drug metabolism assessed as recombinant human liver CYP3A4-mediated formation of d5-desmethyl-zicronapine at 10 uM measured after 15 to 180 mins in presence of Lu AF35700 by LC-MS/MS analysis; assay type: ADME; conditions: recombinant enzyme, time 15-180 min

T2 sequence (P08684 whole entry): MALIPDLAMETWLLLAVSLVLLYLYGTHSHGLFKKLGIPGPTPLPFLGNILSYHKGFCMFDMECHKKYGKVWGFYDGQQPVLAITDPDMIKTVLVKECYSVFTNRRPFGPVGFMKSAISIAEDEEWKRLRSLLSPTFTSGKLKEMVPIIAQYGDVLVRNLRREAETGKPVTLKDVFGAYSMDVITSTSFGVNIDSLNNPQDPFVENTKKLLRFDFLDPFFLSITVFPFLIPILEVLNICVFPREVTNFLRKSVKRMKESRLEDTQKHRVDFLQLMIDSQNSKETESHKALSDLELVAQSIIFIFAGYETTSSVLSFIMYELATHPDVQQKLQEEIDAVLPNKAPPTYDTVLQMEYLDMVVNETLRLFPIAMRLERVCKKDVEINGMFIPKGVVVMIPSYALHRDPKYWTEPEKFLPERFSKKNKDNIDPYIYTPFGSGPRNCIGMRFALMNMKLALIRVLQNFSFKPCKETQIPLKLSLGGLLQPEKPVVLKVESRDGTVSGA
T1 sequence (P33261 whole entry): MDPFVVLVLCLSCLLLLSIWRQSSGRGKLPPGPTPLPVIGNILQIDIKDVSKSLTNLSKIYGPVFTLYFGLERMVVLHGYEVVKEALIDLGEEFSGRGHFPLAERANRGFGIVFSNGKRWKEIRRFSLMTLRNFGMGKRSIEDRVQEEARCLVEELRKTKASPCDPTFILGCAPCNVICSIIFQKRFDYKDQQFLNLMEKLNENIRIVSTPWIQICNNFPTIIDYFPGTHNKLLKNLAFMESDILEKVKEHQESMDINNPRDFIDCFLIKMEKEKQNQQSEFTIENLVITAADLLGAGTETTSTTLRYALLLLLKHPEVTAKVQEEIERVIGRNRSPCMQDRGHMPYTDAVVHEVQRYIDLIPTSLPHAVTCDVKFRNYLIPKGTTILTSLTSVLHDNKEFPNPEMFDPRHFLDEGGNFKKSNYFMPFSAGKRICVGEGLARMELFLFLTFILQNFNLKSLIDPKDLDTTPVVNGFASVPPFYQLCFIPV
Sequence of 5-hydroxytryptamine receptor 2C (P28335 whole entry): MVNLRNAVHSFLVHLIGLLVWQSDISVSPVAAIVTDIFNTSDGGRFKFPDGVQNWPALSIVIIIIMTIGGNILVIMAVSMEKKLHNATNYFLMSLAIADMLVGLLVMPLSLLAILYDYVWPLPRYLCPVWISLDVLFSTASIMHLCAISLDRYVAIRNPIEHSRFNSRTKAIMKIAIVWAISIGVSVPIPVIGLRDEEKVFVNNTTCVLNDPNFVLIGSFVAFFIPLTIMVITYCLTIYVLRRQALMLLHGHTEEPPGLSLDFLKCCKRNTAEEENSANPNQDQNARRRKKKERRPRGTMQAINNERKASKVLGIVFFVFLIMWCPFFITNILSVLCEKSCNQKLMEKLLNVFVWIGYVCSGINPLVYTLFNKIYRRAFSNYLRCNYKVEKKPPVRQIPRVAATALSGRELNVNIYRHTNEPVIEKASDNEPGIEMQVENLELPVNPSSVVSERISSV
Sequence of 5-hydroxytryptamine receptor 7 (P34969 whole entry): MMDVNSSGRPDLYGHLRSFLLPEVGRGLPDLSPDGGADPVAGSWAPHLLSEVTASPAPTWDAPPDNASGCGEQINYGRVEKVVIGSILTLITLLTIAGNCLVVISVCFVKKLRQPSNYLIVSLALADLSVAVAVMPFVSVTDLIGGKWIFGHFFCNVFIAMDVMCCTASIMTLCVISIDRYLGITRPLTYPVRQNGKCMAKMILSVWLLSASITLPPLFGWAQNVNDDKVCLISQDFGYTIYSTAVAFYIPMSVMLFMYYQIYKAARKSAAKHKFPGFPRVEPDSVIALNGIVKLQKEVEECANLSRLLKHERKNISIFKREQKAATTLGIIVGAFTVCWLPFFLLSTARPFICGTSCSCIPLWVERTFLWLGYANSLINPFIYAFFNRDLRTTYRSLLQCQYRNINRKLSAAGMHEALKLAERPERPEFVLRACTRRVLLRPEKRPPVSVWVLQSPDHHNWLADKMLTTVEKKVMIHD
Sequence of D(3) dopamine receptor (P35462 whole entry): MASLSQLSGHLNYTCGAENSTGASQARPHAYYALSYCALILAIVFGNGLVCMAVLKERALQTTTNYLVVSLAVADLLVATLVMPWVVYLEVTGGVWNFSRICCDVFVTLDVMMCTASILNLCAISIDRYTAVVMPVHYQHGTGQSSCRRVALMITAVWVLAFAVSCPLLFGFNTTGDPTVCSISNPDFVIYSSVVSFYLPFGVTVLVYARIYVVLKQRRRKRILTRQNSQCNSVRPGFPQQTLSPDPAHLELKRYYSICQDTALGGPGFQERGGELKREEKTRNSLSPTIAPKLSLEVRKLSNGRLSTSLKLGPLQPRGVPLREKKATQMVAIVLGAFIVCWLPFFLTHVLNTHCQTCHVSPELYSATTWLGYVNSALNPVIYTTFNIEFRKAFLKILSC
Sequence of 5-hydroxytryptamine receptor 1B (P28564 whole entry): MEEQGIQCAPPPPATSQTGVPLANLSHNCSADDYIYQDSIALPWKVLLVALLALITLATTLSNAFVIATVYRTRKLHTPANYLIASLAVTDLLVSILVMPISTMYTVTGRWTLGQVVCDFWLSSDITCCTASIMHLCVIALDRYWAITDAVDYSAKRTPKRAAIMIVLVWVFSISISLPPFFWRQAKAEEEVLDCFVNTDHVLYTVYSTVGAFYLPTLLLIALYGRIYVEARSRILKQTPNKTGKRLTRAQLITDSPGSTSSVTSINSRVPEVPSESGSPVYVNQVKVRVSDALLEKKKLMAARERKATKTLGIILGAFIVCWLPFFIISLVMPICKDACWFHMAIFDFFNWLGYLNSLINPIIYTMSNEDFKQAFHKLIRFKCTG
Sequence of D(4) dopamine receptor (P21917 whole entry): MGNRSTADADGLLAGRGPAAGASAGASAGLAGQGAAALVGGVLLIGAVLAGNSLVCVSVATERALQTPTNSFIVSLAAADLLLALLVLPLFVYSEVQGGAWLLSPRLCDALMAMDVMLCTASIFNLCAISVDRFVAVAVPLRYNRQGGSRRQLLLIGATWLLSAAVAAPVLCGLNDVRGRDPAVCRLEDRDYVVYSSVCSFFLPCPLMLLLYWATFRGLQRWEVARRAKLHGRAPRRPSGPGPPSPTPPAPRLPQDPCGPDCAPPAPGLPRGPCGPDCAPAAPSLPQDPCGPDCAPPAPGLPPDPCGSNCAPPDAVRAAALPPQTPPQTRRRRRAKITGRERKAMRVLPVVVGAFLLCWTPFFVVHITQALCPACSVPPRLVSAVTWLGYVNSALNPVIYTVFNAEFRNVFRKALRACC
Sequence of Alpha-1A adrenergic receptor (P35348 whole entry): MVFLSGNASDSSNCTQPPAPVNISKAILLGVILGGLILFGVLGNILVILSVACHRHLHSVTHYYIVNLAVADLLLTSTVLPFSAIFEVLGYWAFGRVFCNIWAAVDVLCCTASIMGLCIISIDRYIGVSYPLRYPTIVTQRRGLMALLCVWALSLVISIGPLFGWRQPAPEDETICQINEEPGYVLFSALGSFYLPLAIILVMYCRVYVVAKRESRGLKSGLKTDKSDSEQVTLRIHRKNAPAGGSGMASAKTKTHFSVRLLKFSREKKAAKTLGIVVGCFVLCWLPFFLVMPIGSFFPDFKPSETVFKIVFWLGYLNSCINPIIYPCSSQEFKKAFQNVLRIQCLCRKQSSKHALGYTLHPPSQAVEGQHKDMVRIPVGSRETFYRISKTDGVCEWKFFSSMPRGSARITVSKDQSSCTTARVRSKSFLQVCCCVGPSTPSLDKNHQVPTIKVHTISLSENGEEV
Sequence of Alpha-1D adrenergic receptor (P25100 whole entry): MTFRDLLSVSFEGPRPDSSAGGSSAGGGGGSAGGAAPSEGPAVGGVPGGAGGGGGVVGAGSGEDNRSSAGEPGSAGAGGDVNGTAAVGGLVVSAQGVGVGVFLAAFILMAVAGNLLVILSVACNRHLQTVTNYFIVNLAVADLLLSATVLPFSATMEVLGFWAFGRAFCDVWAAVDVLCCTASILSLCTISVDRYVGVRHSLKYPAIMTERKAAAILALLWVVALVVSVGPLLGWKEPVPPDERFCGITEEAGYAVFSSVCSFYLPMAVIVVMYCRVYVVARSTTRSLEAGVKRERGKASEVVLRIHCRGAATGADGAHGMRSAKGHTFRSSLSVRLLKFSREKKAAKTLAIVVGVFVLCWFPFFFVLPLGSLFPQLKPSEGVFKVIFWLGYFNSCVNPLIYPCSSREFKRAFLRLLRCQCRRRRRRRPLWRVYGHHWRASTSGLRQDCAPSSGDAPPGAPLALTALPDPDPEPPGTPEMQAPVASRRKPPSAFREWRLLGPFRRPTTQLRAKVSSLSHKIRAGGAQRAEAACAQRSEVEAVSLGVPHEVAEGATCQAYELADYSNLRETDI
Sequence of Alpha-2B adrenergic receptor (P18089 whole entry): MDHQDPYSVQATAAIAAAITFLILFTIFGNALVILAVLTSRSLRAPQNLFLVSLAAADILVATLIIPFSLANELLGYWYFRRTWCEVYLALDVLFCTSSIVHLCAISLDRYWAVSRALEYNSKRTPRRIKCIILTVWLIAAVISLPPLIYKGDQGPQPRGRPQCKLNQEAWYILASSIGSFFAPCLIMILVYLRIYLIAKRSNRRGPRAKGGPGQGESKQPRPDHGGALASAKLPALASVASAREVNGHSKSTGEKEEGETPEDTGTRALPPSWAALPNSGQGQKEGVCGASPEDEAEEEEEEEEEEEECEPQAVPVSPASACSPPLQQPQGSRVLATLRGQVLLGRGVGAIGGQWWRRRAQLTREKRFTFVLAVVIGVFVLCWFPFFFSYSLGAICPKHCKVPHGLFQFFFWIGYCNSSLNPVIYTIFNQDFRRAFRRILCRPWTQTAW

[2H]c1c([2H])c([2H])c([C@@H]2C[C@@H](N3CCN(C([2H])([2H])[2H])C(C)(C)C3)c3cc(Cl)ccc32)c([2H])c1[2H]
Drug metabolism (Cytochrome P450 2C19 [1]): Metabolite_Detected | Drug metabolism (Cytochrome P450 3A4 [2]): Metabolite_Detected | Ki [3]: 89 nM | Drug metabolism [4]: Metabolite_Detected | Drug metabolism [5]: Metabolite_Detected | Ki [6]: 170 nM | Ki [7]: 0.4 nM | Ki [8]: 1.5 nM | Ki [9]: 3.8 nM | Ki (D(3) dopamine receptor): 16 nM | Ki (D(4) dopamine receptor): 6.8 nM | Ki (D(1B) dopamine receptor): 0.37 nM | Ki [10]: 3.4 nM | Ki [11]: 2.9 nM | Ki [12]: 9.5 nM | Ki [13]: 560 nM | Ki [14]: 47 nM | Ki [15]: 9.7 nM | Ki [16]: 4200 nM | Ki (Histamine H1 receptor): 4 nM

[2H]c1c([2H])c([2H])c([C@@H]2C[C@@H](N3CCN(C)C(C)(C)C3)c3cc(Cl)ccc32)c([2H])c1[2H]
Drug metabolism (Cytochrome P450 2C19 [1]): Metabolite_Detected | Drug metabolism (Cytochrome P450 3A4 [2]): Metabolite_Detected | Drug metabolism [4]: Metabolite_Detected | Drug metabolism [5]: Metabolite_Detected

[2H]c1c([2H])c([2H])c([C@@H]2C[C@@H](N3CCNC(C)(C)C3)c3cc(Cl)ccc32)c([2H])c1[2H]
Ki [3]: 420 nM | Ki [6]: 660 nM | Ki [17]: 0.84 nM | Ki [7]: 0.39 nM | Ki [8]: 1.1 nM | Ki [18]: 0.73 nM | Ki [9]: 11 nM | Ki (D(1A) dopamine receptor): 1 nM | Ki (D(2) dopamine receptor): 11 nM | Ki (D(3) dopamine receptor): 59 nM | Ki (D(4) dopamine receptor): 11 nM | Ki (D(1B) dopamine receptor): 0.67 nM | Ki [10]: 13 nM | Ki [11]: 11 nM | Ki [12]: 35 nM | Ki [13]: 2500 nM | Ki [14]: 490 nM | Ki [15]: 160 nM | Ki [16]: 510 nM | Ki (Histamine H1 receptor): 6.6 nM

CN1CCN([C@@H]2C[C@@H](c3ccccc3)c3ccc(Cl)cc32)CC1(C)C [ZICRONAPINE]
Drug metabolism (Cytochrome P450 2C19 [19]): Metabolite_Detected | Drug metabolism (Cytochrome P450 2C19 [20]): Metabolite_Detected | Drug metabolism (Cytochrome P450 2C19 [21]): Metabolite_Detected | Drug metabolism (Cytochrome P450 3A4 [22]): Metabolite_Detected | Drug metabolism (Cytochrome P450 3A4 [23]): Metabolite_Detected | Drug metabolism (Cytochrome P450 3A4 [24]): Metabolite_Detected

Reference: ChEMBL document CHEMBL5113485, “Distal kinetic deuterium isotope effect: Phenyl ring deuteration attenuates N-demethylation of Lu AF35700” (Bioorg Med Chem Lett, 2022)
